Earlier results in US7956061B2, “Bicyclic pyrimidines as dipeptidyl peptidase-IV inhibitors for the treatment or prevention of diabetes” (Merck Sharp & Dohme Corp., priority 2005, dated 2011).

What was measured:
hematopoiesis = settings: mouse, cyclophosphamide-induced neutropenia; WO 99/56753
cardiac allograft = settings: rats; Transplantation, 63: 1495-1500 (1997)
DPP-IV = target: T1, DPP-IV (Homo sapiens, UniProt P27487); settings: plasma
T1 construct: GRF is rapidly degraded in plasma to GRF[3-44]
T1 sequence (P27487 39-766 limits assumed, species assumed): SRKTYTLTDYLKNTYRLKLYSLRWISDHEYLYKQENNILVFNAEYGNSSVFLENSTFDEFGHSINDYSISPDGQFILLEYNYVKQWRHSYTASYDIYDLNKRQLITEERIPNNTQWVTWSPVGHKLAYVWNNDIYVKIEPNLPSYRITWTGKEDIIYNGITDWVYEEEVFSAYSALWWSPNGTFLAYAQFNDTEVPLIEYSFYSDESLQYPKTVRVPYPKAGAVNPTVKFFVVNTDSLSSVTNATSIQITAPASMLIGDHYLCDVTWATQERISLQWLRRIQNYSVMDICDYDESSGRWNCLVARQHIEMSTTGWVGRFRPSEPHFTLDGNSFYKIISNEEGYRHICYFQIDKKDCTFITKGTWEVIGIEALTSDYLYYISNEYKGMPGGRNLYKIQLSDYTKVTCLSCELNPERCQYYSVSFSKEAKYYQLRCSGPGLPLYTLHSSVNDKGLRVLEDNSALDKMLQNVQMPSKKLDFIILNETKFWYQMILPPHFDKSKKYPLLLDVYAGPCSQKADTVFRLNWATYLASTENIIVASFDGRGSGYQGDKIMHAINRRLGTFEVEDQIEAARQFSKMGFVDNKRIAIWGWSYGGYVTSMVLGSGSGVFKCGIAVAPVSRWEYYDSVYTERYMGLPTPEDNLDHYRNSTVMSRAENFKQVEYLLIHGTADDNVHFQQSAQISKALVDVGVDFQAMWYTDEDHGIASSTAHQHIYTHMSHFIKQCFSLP

Molecule: CC(C)[C@H](N)C(=O)N1CCC[C@H]1B(O)O [Val-Boro-Pro]
- effect on hematopoiesis (hematopoiesis): stimulated hematopoiesis

Molecule: CC(C)N1CCC(c2ccccc2)(c2ccccc2)CC1 [Prodipine, Pro-Pro-diphenyl-phosphonate]
- cardiac allograft survival (cardiac allograft): double cardiac allograft survival in rats from day 7 to day 14

Molecule: diprotin A
- effect on degradation of GRF to GRF[3-44] (DPP-IV): prevented
